# Assay results from article PMC6268061, “Investigation of the Biological Properties of (Hetero)Aromatic Thiosemicarbazones” (Molecules, 2012).
# Like-named read-outs stand apart in the source and are kept apart here.
# How the values were obtained:
# Candida tropicalis 156 = assay: In vitro antifungal susceptibility, broth microdilution; type: cell-based; details: read-out: MIC (IC80) CT
# Absidia corymbifera 272 = assay: as above; type: cell-based; details: read-out: MIC (IC50) AC
# [1] = tested on: HCT-116 human colon cancer cells (p53 wild type); parameters: method as in PMID 22858101; details: footnote 3: anticancer activity described elsewhere ref [34],[44]; cited from earlier work
# [2] = tested on: Candida albicans ATCC 44859; assay: In vitro antifungal susceptibility, broth microdilution; type: cell-based; details: read-out: MIC (IC80) CA
# Candida glabrata 20/I = assay: as above; type: cell-based; details: Nakaseomyces glabratus, read-out: MIC (IC80) CG
# Candida krusei ATCC 6258 = assay: as above; type: cell-based; details: Pichia kudriavzevii, read-out: MIC (IC80) CK
# [3] = tested on: Aspergillus fumigatus 231; assay: as above; type: cell-based; details: read-out: MIC (IC50) AF
# [4] = tested on: Trichophyton mentagrophytes 445; assay: as above; type: cell-based; details: read-out: MIC (IC50) TM
# [5] = tested on: Trichosporon beigelii 1188; assay: as above; type: cell-based; details: read-out: MIC (IC80) TB
# Excerpt: The broth microdilution test was used for the assessment of the in vitro antifungal activity of the synthesized compounds against Candida albicans ATCC 44859 (CA), Candida tropicalis 156 (CT), Candida krusei ATCC 6258 (CK), Candida glabrata 20/I (CG), Trichosporon beigelii 1188 (TB), Aspergillus fumigatus 231 (AF), Absidia corymbifera 272 (AC), and Trichophyton mentagrophytes 445 (TM). Fluconazole (FLU) was used as the standard since it is a clinically used antimycotic drug. The procedure was performed using a twofold dilution of the compounds in RPMI 1640 (Sevapharma a.s., Prague, Czech Republic) buffered to pH 7.0 with […] of 3-morpholino-propane-1-sulfonic acid (MOPS, Sigma, Prague, Czech Republic). The final concentrations of the compounds ranged from 500 to 0.975 μmol/L. Drug-free controls were included. The determination of minimum inhibitory concentration (MIC) was performed according to the Clinical and Laboratory Standards Institute (CLSI, formerly NCCLS) reference protocol M27-A2 for yeasts (IC80 value) and M38-A for moulds (IC50 value). IC80 and IC50 were defined as an 80% resp. 50% or greater reduction in growth in comparison with the control. The values of MICs were determined after 24 and 48 h of static incubation at 35 °C. The final MICs for T. mentagrophytes, were determined after 72 and 120 h of incubation.
# [6] = Lipophilicity determination using RP-HPLC (capacity factor, log k); type: physicochemical; details: C18, MeOH 55%/H2O 45%
# Excerpt: Reversed phase high performance liquid chromatography (RP-HPLC) methods have become popular and are widely used for lipophilicity measurements. The general procedure is the measurement of the directly accessible retention time under isocratic conditions using varying amounts of methanol as an organic modifier in the mobile phase using RP columns and calculating the logarithm of the capacity factors (log k). Log k is the logarithm of the capacity factors in chromatographic approaches that is related to the partitioning of a compound between a mobile and a (pseudo-)stationary phase. Log k is used as the lipophilicity index converted to log P scale.
# A Waters Alliance 2695 XE HPLC separation module and a Waters Photodiode Array Detector 2996 (Waters Corp., Milford, MA, USA) were used. A Symmetry® C18 5 μm, 4.6 × 250 mm, Part No. WAT054275 (Waters Corp.) chromatographic column was used. The HPLC separation process was monitored using Empower™ 2 Chromatography Data Software, Waters 2009 (Waters Corp.). A mixture of MeOH p.a. (55%) and H2O-HPLC-Mili-Q Grade (45%) was used as a mobile phase. The total flow of the column was 0.9 mL/min, injection volume 30 μL, column temperature 30 °C and sample temperature 10 °C. A detection wavelength of 210 nm was chosen. A KI methanolic solution was used for the determination of dead time (tD). Retention times (tR) were measured in minutes. The capacity factors k were calculated using the Empower™ 2 Chromatography Data Software according to the formula k = (tR − tD)/tD, where tR is the retention time of the solute, whereas tD denotes the dead time obtained using an unretained analyte. Log k, calculated from the capacity factor k, is used as the lipophilicity index converted to log P scale.
# [7] = tested on: HCT-116 human colon cancer cells (p53 wild type); assay: In vitro antiproliferative activity, MTS assay; type: cell-based; details: HCT-116, 72 h incubation, MTS, read-out: HCT-116 IC50
# Procedure: The antiproliferative activity of all of the compounds was examined against the human colon cancer (HCT-116) cell line using an MTS assay. The HCT-116 p53 wild type cell line was chosen on the basis of our former experience and some results on the activity of quinoline-based thiosemicarbazones that was published recently. Namely, compounds 4a–l have been tested previously for their wide-ranging anticancer activity. The antiproliferative activity of the compounds evaluated was assessed using Doxorubicin as a reference compound. In general, quinoline-based thiosemicarbazones 4 seem to have a much better anticancer activity than halogenophenyl compounds 3. Thus, the quinoline nucleus can be defined as being crucial for antiproliferative activity. A more detailed analysis of the anticancer activity of quinoline-based thiosemicarbazone is available. […] Nevertheless, some more general conclusions can be drawn from the gathered data. […] The free amino group or substitution pattern with small substituents such as methyl or ethyl are favorable for activity. According to our former results the chelating ability of the compounds may be one of the prerequisites of the antiproliferative activity. In this study we have measured the UV-VIS spectra of the compounds in presence of various concentration of Fe^3+ cations to observe its chelating potency (supplementary material). […] However as 4j give also two points at 330 and 385 nm, iron chelating ability should be regarded only as one of the factor influencing the biological activity.
# The human colon cancer cell line HCT116 with the wild type p53 gene (p53^+/+) were obtained from Maria Sklodowska-Curie Memorial Cancer Center in Gliwice, Poland. Briefly, the cells were seeded in 96-well plates (3 × 10^3 cells/well) in cellular proliferation assays 24 h before the addition of the chelators. The assay was performed following a 72 h incubation with varying concentrations of the agents. Each compound was tested in triplicate in a single experiment with each experiment being repeated 3 times. After 72 h incubation with the compounds being investigated, 20 µL of MTS solution was added to each well (100 µL) and incubated for 1 h at 37 °C. The optical densities of the samples were analyzed at 490 nm. Results were expressed as a percentage of the control. The inhibitory concentration (IC50) was defined as the compound concentration necessary to reduce the absorbance to 50% of the untreated control.
# [8] = tested on: photosynthetic electron transport (PET) in spinach chloroplasts; assay: Inhibition of photosynthetic electron transport (PET) in spinach chloroplasts; type: biochemical, Spinacia oleracea L.; details: DCPIP photoreduction
# Procedure: Chloroplasts were prepared from spinach (Spinacia oleracea L.) according to Masarovicova and Kralova. The inhibition of the photosynthetic electron transport (PET) in spinach chloroplasts was determined spectrophotometrically (Genesys 6, Thermo Fisher Scientific, Waltham, MA, USA) using an artificial electron acceptor 2,6-dichlorophenol-indophenol (DCIPP) according to Kralova et al. and the rate of photosynthetic electron transport was monitored as a photoreduction of DCPIP. The measurements were carried out in a phosphate buffer (0.02 mol/L, pH 7.2) containing sucrose (0.4 mol/L), MgCl2 (0.005 mol/L) and NaCl (0.015 mol/L). The chlorophyll content was 30 mg/L in these experiments and the samples were irradiated (~100 W/m^2 with 10 cm distance) with a halogen lamp (250 W) using a 4 cm water filter to prevent warming of the samples (suspension temperature 22 °C). The compounds studied were dissolved in DMSO due to their limited water solubility. […] The inhibitory efficiency of the compounds studied was expressed by IC50 values, i.e., by the molar concentration of the compounds that caused a 50% decrease in the oxygen evolution rate relative to the untreated control.
# [9] = Candida tropicalis, 156, 24 h and 48 h, only one value presented (inactive)
# [10] = Lichtheimia corymbifera, 272, 24 h and 48 h, only one value presented (inactive)
# [11] = ATCC44859, 24 h and 48 h, only one value presented (inactive)
# [12] = 24 h and 48 h, only one value presented (inactive)
# [13] = ATCC6258, 24 h and 48 h, only one value presented (inactive)
# [14] = Aspergillus fumigatus, 231, 24 h and 48 h, only one value presented (inactive)
# [15] = Trichophyton mentagrophytes, 445, 72 h and 120 h, only one value presented (inactive)
# [16] = Trichosporon beigelii, 1188, 24 h and 48 h, only one value presented (inactive)
Compound,MIC (Candida tropicalis 156; [9]) [µM],IC50 (Absidia corymbifera 272; [10]) [µM],IC50 [1] [µM],"MIC [2, 11] [µM]",MIC (Candida glabrata 20/I; [12]) [µM],MIC (Candida krusei ATCC 6258; [13]) [µM],"IC50 [3, 14] [µM]","IC50 [4, 15] [µM]","MIC [5, 16] [µM]",log k [6],IC50 [7] [µM],IC50 [8] [µM],also measured
"NC(=S)N/N=C/c1cccc(Cl)c1Cl [Compound 3a, (E)-2-(2,3-Dichlorobenzylidene)hydrazinecarbothioamide]",> 125,> 125,41.5 ± 1.7,> 125,> 125,> 125,> 125,> 125,> 125,0.6892,,,
"CCNC(=S)N/N=C/c1cccc(Cl)c1Cl [Compound 3d, (E)-2-(2,3-Dichlorobenzylidene)-N-ethylhydrazinecarbothioamide]",> 500,> 500,58.5 ± 0.2,> 500,> 500,> 500,> 500,> 500,> 500,0.7958,,,
"NC(=S)N/N=C/c1ccc(Cl)c(Cl)c1 [Compound 3f, (E)-2-(3,4-Dichlorobenzylidene)hydrazinecarbothioamide]",> 500,> 500,,> 500,> 500,> 500,> 500,> 500,> 500,0.6974,46 ± 0.9,283,
"CNC(=S)N/N=C/c1ccc(Cl)c(Cl)c1 [Compound 3g, (E)-2-(3,4-Dichlorobenzylidene)-N-methylhydrazinecarbothioamide]",> 125,> 125,,> 125,> 125,> 125,> 125,> 125,> 125,0.7563,55.5 ± 6.2,136,
"CCNC(=S)N/N=C/c1ccc(Cl)c(Cl)c1 [Compound 3i, (E)-2-(3,4-Dichlorobenzylidene)-N-ethylhydrazinecarbothioamide]",> 500,> 500,,> 500,> 500,> 500,> 500,> 500,> 500,0.8415,48.5 ± 2.8,280,
"S=C(N/N=C/c1ccc(Cl)c(Cl)c1)Nc1ccccc1 [Compound 3j, (E)-2-(3,4-Dichlorobenzylidene)-N-phenylhydrazinecarbothioamide]",> 125,> 125,,> 125,> 125,> 125,> 125,> 125,> 125,0.9774,> 60,426,
"CCNC(=S)N/N=C/c1ccc(Br)cc1 [Compound 3n, (E)-2-(4-Bromobenzylidene)-N-ethylhydrazinecarbothioamide]",> 500,> 500,> 60,> 500,> 500,> 500,> 500,> 500,> 500,0.7568,,,
Oc1cccc2ccc(C=NNC(=S)Nc3ccccc3)nc12 [Compound 4h],,,25 ± 4.29,,,,,,,0.7548,,,"MIC (Candida tropicalis 156; Candida tropicalis, 156, 24 h): > 125 µM; MIC (Candida tropicalis 156; Candida tropicalis, 156, 48 h): > 125 µM; IC50 (Absidia corymbifera 272; Lichtheimia corymbifera, 272, 24 h): > 125 µM; IC50 (Absidia corymbifera 272; Lichtheimia corymbifera, 272, 48 h): > 125 µM; MIC ([2]; ATCC44859, 24 h): > 125 µM; MIC ([2]; ATCC44859, 48 h): > 125 µM; MIC (Candida glabrata 20/I; 24 h): > 125 µM; MIC (Candida glabrata 20/I; 48 h): > 125 µM; MIC (Candida krusei ATCC 6258; ATCC6258, 24 h): > 125 µM; MIC (Candida krusei ATCC 6258; ATCC6258, 48 h): > 125 µM; IC50 ([3]; Aspergillus fumigatus, 231, 24 h): > 125 µM; IC50 ([3]; Aspergillus fumigatus, 231, 48 h): > 125 µM; IC50 ([4]; Trichophyton mentagrophytes, 445, 72 h): > 125 µM; IC50 ([4]; Trichophyton mentagrophytes, 445, 120 h): > 125 µM; MIC ([5]; Trichosporon beigelii, 1188, 24 h): > 125 µM; MIC ([5]; Trichosporon beigelii, 1188, 48 h): > 125 µM"
